According to patent US20250177532A1, “TEMPERATURE-SENSITIVE HYDROGEL FOR CANCER TREATMENT CAPABLE OF PHOTOTHERMAL THERAPY AND PREPARATION METHOD THEREFOR” (KOREA NATIONAL UNIVERSITY OF TRANSPORTATION …, priority 2022, published 2025):

Tested on: 4T1 cells
Test: Photothermal effect in vitro: cell viability by WST-1 assay with/without near-infrared irradiation
Conditions: Triton X 0.1%
Method: To evaluate photothermal effect in in vitro, cells were seeded (1×10^4 cells/well) in 96 well-plate and incubated for 12 h. […] Then, the well was irradiated with near-infrared light for 5 min and incubated again for 24 hours. Then, cell viability was measured using WST-1 assay.

Question: Which results are given for Triton X?
Answer: Cell viability (%) (control of Table 1 (GNS experiment, near-infrared irradiation)): 5.02%; Cell viability (%) (control of Table 2, NIR irradiated): 10.58%; Cell viability (%) (control of Table 2, no NIR): 10.23%
